Legend:
in vivo [1] = conditions: female, New Zealand white (INRA 1777 line), rabbit, in vivo, po
Summary of the method: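 Female New Zealand white rabbits (INRA 1777 line, 2 wk old, n=16 treated, 16 vehicle controls) received an oral eight-compound mixture: loading plus maintenance dose, then daily maintenance dose for 17 wk. Dosing volume 1mL/kg adjusted weekly to predicted BW; serum obtained after clotting and centrifugation, stored at −20°C.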

in vivo [2] = conditions: female, rabbit, in vivo, iv; for AUC(0-inf) / Cmax / MRT / clearance / half-life / Vd: New Zealand white (INRA 1777 line); for Serum concentration / concentration at 0.6 h / concentration at 0.67 h / concentration at 0.77 h / concentration at 24 h / concentration at 24.03 h / concentration at 71.97 h / concentration at 72 h / concentration at 72.03 h / concentration at 167.92 h / concentration at 168 h / concentration at 671.83 h / concentration at 671.96 h / concentration at 672 h: New Zealand white; for concentration at 0.6 h / concentration at 0.67 h / concentration at 0.77 h / concentration at 24 h / concentration at 24.03 h / concentration at 71.97 h / concentration at 72 h / concentration at 72.03 h / concentration at 167.92 h / concentration at 168 h / concentration at 671.83 h / concentration at 671.96 h / concentration at 672 h: Serum concentration
Summary of the method: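 Female New Zealand white rabbits received a compound mixture IV via ear-vein catheter; serum sampled sparsely (3 rabbits/time point) from 15 min to 28 d. Noncompartmental sparse-data analysis on mean profiles: linear-trapezoidal AUC, CL as dose/AUC0−inf, half-life from λZ, MRT and VSS.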

[3] = Estimation of loading and daily maintenance doses and NLME model simulations; design: species or system female rabbits; conditions: oral; for Computed maintenance dose: daily; for Computed maintenance dose / Computed loading dose: scaled to the targeted CSS of Table 6; for Daily maintenance dose: to maintain serum concentration of 1 ng/mL, daily CL×Css/F; for Daily maintenance dose / Loading dose: DEHP dose for MEHP in serum; for Loading dose: to rapidly attain serum concentration of 1 ng/mL, Vss×Css/F
Summary of the method: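 Loading and daily maintenance doses computed from TK equations for a nominal CSS of 1 ng/mL, then scaled to oral doses for female rabbits. NLME model simulated central and peripheral compartment amounts over repeated daily maintenance dosing.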

ClC(Cl)=C(c1ccc(Cl)cc1)c1ccc(Cl)cc1 [pp′DDE, 1,1-Dichloro-2,2-bis(p-chlorophenyl)ethylene]
concentration at 17 wk (in vivo [1]): 25 ± 12 ng/mL
AUC(0-inf) (in vivo [2]): 19.8 µM·h
Cmax (in vivo [2]): 900 nM
MRT (in vivo [2]): 8.46 days
clearance (in vivo [2]): 1.83 mL/min/kg
half-life (in vivo [2]): 9.92 days
Vd (in vivo [2]; VSS): 23.2 L/kg
Vd (in vivo [2]; VZ): 39.2 L/kg
Serum concentration (in vivo [2]; 24 h): 0.060 µmol/L
Serum concentration (in vivo [2]; 168 h): 0.015 µmol/L
concentration at 0.6 h (in vivo [2]): 600 nM
concentration at 0.67 h (in vivo [2]): 900 nM
concentration at 0.77 h (in vivo [2]): 640 nM
concentration at 24 h (in vivo [2]): 65 nM
concentration at 24.03 h (in vivo [2]): 47 nM
concentration at 71.97 h (in vivo [2]): 27 nM
concentration at 72 h (in vivo [2]): 26 nM
concentration at 72.03 h (in vivo [2]): 27 nM
concentration at 167.92 h (in vivo [2]): 11 nM
concentration at 168 h (in vivo [2]): 19 nM
concentration at 671.83 h (in vivo [2]): 3.7 nM
concentration at 671.96 h (in vivo [2]): 2.8 nM
concentration at 672 h (in vivo [2]): 6.8 nM
Computed maintenance dose [3]: 95 µg/kg
Computed loading dose [3]: 1,039 μg/kg
Daily maintenance dose [3]: 4.5 µg/kg
Loading dose [3]: 49 µg/kg

Cl[C@H]1[C@H](Cl)[C@@H](Cl)[C@H](Cl)[C@@H](Cl)[C@@H]1Cl [β-HCH, β-hexachlorocyclohexane]
concentration at 17 wk (in vivo [1]): 4.3 ± 1.6 ng/mL
AUC(0-inf) (in vivo [2]): 26.7 µM·h
Cmax (in vivo [2]): 320 nM
MRT (in vivo [2]): 22.6 days
clearance (in vivo [2]): 0.95 mL/min/kg
half-life (in vivo [2]): 13.8 days
Vd (in vivo [2]; VSS, IV mixture dosing, NCA, n=12): 30.9 L/kg
Vd (in vivo [2]; VZ, IV mixture dosing, NCA, n=12): 27.1 L/kg
concentration at 24.03 h (in vivo [2]; rabbit 1, 24.03 h): 62 nM
concentration at 24 h (in vivo [2]; rabbit 2, […]): 50 nM
concentration at 24 h (in vivo [2]; rabbit 3, […]): 76 nM
concentration at 72 h (in vivo [2]; rabbit 4, 72.00 h): 36 nM
concentration at 72.03 h (in vivo [2]; rabbit 5, 72.03 h): 34 nM
concentration at 71.97 h (in vivo [2]; rabbit 6, 71.97 h): 29 nM
concentration at 168 h (in vivo [2]; rabbit 7, 168.00 h): 20 nM
concentration at 167.92 h (in vivo [2]; rabbit 8, 167.92 h): 18 nM
concentration at 168 h (in vivo [2]; rabbit 9, 168.00 h): 25 nM
concentration at 0.67 h (in vivo [2]; rabbit 10, 0.67 h): 320 nM
concentration at 671.96 h (in vivo [2]; rabbit 10, 671.96 h): 6.5 nM
concentration at 0.77 h (in vivo [2]; rabbit 11, 0.77 h): 250 nM
concentration at 672 h (in vivo [2]; rabbit 11, 672.00 h): 21 nM
concentration at 0.6 h (in vivo [2]; rabbit 12, 0.60 h): 270 nM
concentration at 671.83 h (in vivo [2]; rabbit 12, 671.83 h): 9.6 nM
Computed maintenance dose [3]: 11 µg/kg
Computed loading dose [3]: 163 µg/kg
Daily maintenance dose [3]: 2.4 µg/kg
Loading dose [3]: 37 µg/kg

From article PMC8597046, “Use of Mixture Dosing and Nonlinear Mixed Effect Modeling of Eight Environmental Contaminants in Rabbits to Improve Extrapolation Value of Toxicokinetic Data” (Environmental Health Perspectives, 2021)
